According to publication PMC10816934, “Targeting the Melanocortin 1 Receptor in Melanoma: Biological Activity of α-MSH–Peptide Conjugates” (International Journal of Molecular Sciences, 2024):

Columns and labels:
[1] = test system: A2058 human melanoma cell line; assay: In vitro antiproliferative activity, MTT assay; type: cell-based; conditions: for IC50: MTT assay, 0.8–100 μM in serum-free medium 24 h, then 48 h culture, mean ± SD of two or three independent experiments; for Relative Potency: ratio of IC50 values of free Dau and conjugate
Excerpt: (§1) The following cell cultures were used for the biological evaluation of the synthetic melanoma-specific peptide–drug (Dau–α-MSH) conjugates: A2058 (human skin melanoma, CVCL_1059), M24 (human metastatic skin melanoma, CVCL_D032), OCM-1 (human ocular choroidal melanoma-1, CVCL_6934), OCM-3 (human ocular choroidal melanoma-3, CVCL_6937), WM983A (human metastatic skin melanoma, CVCL_6808), WM983B (human metastatic skin melanoma CVCL_6809), SK-MEL-202 (human skin melanoma, ATCC HTB-68) and B16 (mouse melanoma, ATCC: CRL-6475). Cells were maintained in RPMI-1640 (Lonza, Basel, Switzerland), supplied with 10% FBS (fetal bovine serum; BioSera, Nuaille, France), L-glutamine, and 1% penicillin–streptomycin (from 10 000 units penicillin and 10 mg streptomycin/mL, Gibco, Dublin, Ireland) at 37 °C in a 5% CO2 atmosphere. No mycoplasma contamination was detected in the cell cultures.
(§2) The in vitro cytostatic effect of Dau–α-MSH conjugates was determined by two different assays. The full-length Dau–α-MSH conjugates were investigated by MTT assay using human and murine melanoma cell cultures. For determination of the cytostatic effect of these conjugates, the cells were treated with the compounds at 0.8–100 μM concentration range dissolved in the corresponding serum-free media for 24 h. After incubation, the treating solutions were removed, the cells were washed two times with serum-free medium and cultured for 48 h in the appropriate serum-containing cell culture medium. On the fourth day, the MTT assay was carried out to determine the IC50 values of the compounds. IC50 is the concentration that inhibits cell proliferation by 50%. Nonlinear regression analysis was performed with Prism 6 software (GraphPad, La Jolla, CA, USA) to generate sigmoidal dose–response curves, from which the 50% inhibitory concentration (IC50) values of the compounds were calculated and presented as micromolar (µM) units. The experiments were done in triplicate, and each experiment was repeated twice.

[2] = test system: WM983B human melanoma cell line; assay: In vitro antiproliferative activity, MTT assay; type: cell-based; conditions: for IC50: MTT assay, 0.8–100 μM in serum-free medium 24 h, then 48 h culture, mean ± SD of two or three independent experiments; for Relative Potency: ratio of IC50 values of free Dau and conjugate
Excerpt: as §1, §2

[3] = test system: M24 human melanoma cell line; assay: In vitro antiproliferative activity, MTT assay; type: cell-based; conditions: for IC50: MTT assay, 0.8–100 μM in serum-free medium 24 h, then 48 h culture, mean ± SD of two or three independent experiments; for Relative Potency: ratio of IC50 values of free Dau and conjugate
Excerpt: as §1, §2

[4] = test system: B16 murine melanoma cell line; assay: In vitro antiproliferative activity, MTT assay; type: cell-based, mouse; conditions: for IC50: MTT assay, 0.8–100 μM in serum-free medium 24 h, then 48 h culture, mean ± SD of two or three independent experiments; for Relative Potency: ratio of IC50 values of free Dau and conjugate
Excerpt: as §1, §2

[5] = test system: subcutaneous B16 murine melanoma in C57BL/6 male mice; assay: In vivo antitumor effect, subcutaneous B16 melanoma allograft; conditions: for Increase of animal bodyweight at the end of the experiment in comparison to the start: conjugates 10 mg Dau content/kg i.p. days 9, 13, 15, 17, free Dau 1 mg/kg days 9, 17; for Tumor growth inhibition based on tumor weight, in comparison to the control group / Animal body weight (Table S1) / Tumor weigh in % (Table S1) / Tumor volume in % (Table S1) / Tumor volume in mm3 (Table S1): conjugates 10 mg Dau content/kg; for Tumor growth inhibition based on tumor weight, in comparison to the control group / Tumor volume in percentage (start set as 100%) increased in comparison to the control group: free Dau 1 mg/kg i.p.; for Animal body weight (Table S1): change at end compared to start; for Animal body weight (Table S1) / Tumor weigh in % (Table S1): minus = decrease; for Tumor weigh in % (Table S1) / Tumor volume in % (Table S1) / Tumor volume in mm3 (Table S1): change compared to control group; for Tumor volume in % (Table S1) / Tumor volume in mm3 (Table S1): minus = inhibition; for Tumor volume in percentage (start set as 100%) increased in comparison to the control group: end of experiment, Conj1 10 mg Dau content/kg
Procedure: In the first experiment, B16 murine melanoma cells were subcutaneously (s.c.) injected into side of the latero-abdominal region of 35 C57BL/6 male mice (20–28 g), which murine strain is syngeneic for the B16 melanoma tumor cell line [59, 60], 6.5 ×·10^5 cells in a volume of 200 µL M199 medium was inoculated per animal. Mice were randomized in a stratified procedure considering two main factors. The primary factor was to obtain groups with the most equal tumor sizes, the secondary factor was to have groups in which the weight of mice are the most equal. The treatment started 9 days after cell inoculation when average tumor volume was 30 mm^3. Compounds were dissolved in saline solution (Teva, Debrecen, Hungary), and administered via i.p. injection in a volume of 0.1 mL per 10 g of bodyweight. […] Animal weight and tumor volumes were measured initially when the treatment started and at periodic intervals following treatment. A digital caliper was used to measure the longest (a) and the shortest diameter (b) of a given tumor. The tumor volume was calculated using the formula V = ab^2 × π/6, whereby a and b represent the measured parameters (length and width). Termination of the experiment was 20 days after cell inoculation, i.e., 12 days after treatment started, since the average volume of the tumors in the control group reached over 1800 mm^3. The mice from all groups were sacrificed by cervical dislocation after which their tumors were harvested and weighed for antitumor effect assessment. Antitumor effect of treatments was evaluated measuring the tumor volume and calculating the percentage of how much the tumor volume grew in comparison to the starting tumor volume which was set arbitrarily for all tumors as 100% at the start of treatment.

[6] = test system: OCM-1 human uveal melanoma tumor in male NOD-SCID mice; assay: In vivo tumor growth inhibition, OCM-1 xenograft; parameters: species or system mouse
Procedure: In the next experiment, the murine xenograft melanoma model establishment studies were performed using 8–12-week-old male NOD-SCID mice. For selection of the most suitable tumor model, three cell lines were then inoculated subcutaneously, OCM-1, SK-MEL-202, and WM983A. Cells were injected in a 0.1 mL RPMI-1640 basic medium in a concentration of 1.5·× 10^6 cells/mL, and the tumor growth and weight of mice were monitored 2–3 times per week. Subsequently, the antitumor effects of the Dau–α-MSH conjugates were determined in a mouse xenograft melanoma model selected as described above. Once the tumor volume reached 60 mm^3, mice were randomized and assigned to different groups for each treatment: 0.9% saline as a control, free daunomycin, Conj2 and Conj4. Treatments were injected intraperitoneally every fifth day, three times in total (daunomycin dosage of 5 mg/kg in case of Conj2, 10 mg/kg for Conj4, respectively, which was determined based on the toxicity tests, and 1 mg/kg were used for free drug–MTD). The weight and tumor size of mice were monitored during the whole experiment. On Day 33, mice were euthanized, and the primary tumor, heart, lung, liver, and spleen were harvested and stored in 4% formalin (Molar Chemicals, Halásztelek, Hungary). Liver weight was measured for the calculation of the toxicity of conjugates and daunomycin.

WM983A cells = assay: In vitro cytostatic effect, PrestoBlue assay; type: cell-based, human; conditions: Homo sapiens; WM983A; PrestoBlue; 0.003–200 μM in serum-free medium 72 h; mean ± SEM of three independent experiments
Excerpt: as §1
(§3) The in vitro cytostatic effect of the Dau–α-MSH conjugate with optimized sequence (Conj4) was investigated and compared with Conj2 by PrestoBlue assay using human melanoma cell cultures with different origins. For determination of the cytostatic effect of the conjugates, the cells were treated with the compounds at 0.003–200 μM concentration range dissolved in the corresponding serum-free medium for 72 h. After the treatment, the PrestoBlue assay (purchased from Invitrogen (Waltham, MA, USA) was carried out to determine the IC50 values of the compounds. Based on the IC50 values, we also determined the targeting index (TI) of the conjugates using the following equation [58]: TI=IC50neg/IC50posconjugate/IC50neg/IC50posfree drug

OCM-3 cells = assay: In vitro cytostatic effect, PrestoBlue assay; type: cell-based, human; conditions: Homo sapiens; OCM-3; PrestoBlue; 0.003–200 μM in serum-free medium 72 h; mean ± SEM of three independent experiments
Excerpt: as §1, §3

WM983B cells = assay: In vitro cytostatic effect, PrestoBlue assay; type: cell-based, human; conditions: Homo sapiens; WM983B; PrestoBlue; 0.003–200 μM in serum-free medium 72 h; mean ± SEM of three independent experiments
Excerpt: as §1, §3

OCM-1 cells = assay: In vitro cytostatic effect, PrestoBlue assay; type: cell-based, human; conditions: Homo sapiens; OCM-1; PrestoBlue; 0.003–200 μM in serum-free medium 72 h; mean ± SEM of three independent experiments
Excerpt: as §1, §3

[7] = free drug 1 mg/kg i.p., group terminated on day 28

Compound | IC50 [1] [nM] | Relative Potency [1] | IC50 [2] [nM] | Relative Potency [2] | IC50 [3] [nM] | Relative Potency [3] | IC50 [4] [nM] | Relative Potency [4] | Increase of animal bodyweight at the end of the experiment in comparison to the start ([5]; B16-bearing C57BL/6 mice) [%] | Tumor growth inhibition based on tumor weight, in comparison to the control group ([5]; after termination (day 20)) [%] | Animal body weight (Table S1) ([5]; free Dau 1 mg/kg) | Tumor weigh in % (Table S1) ([5]; free Dau 1 mg/kg) | Tumor volume in % (Table S1) ([5]; free Dau 1 mg/kg) | Tumor volume in mm3 (Table S1) ([5]; free Dau 1 mg/kg) | Tumor volume in percentage (start set as 100%) increased in comparison to the control group [5] [%] | further results
CCCC[C@H](NC(=O)[C@H](CO)NC(=O)[C@H](Cc1ccc(O)cc1)NC(=O)[C@H](CO)NC(=O)CON=C(C)[C@]1(O)Cc2c(O)c3c(c(O)c2[C@@H](O[C@H]2C[C@H](N)[C@H](O)[C@H](C)O2)C1)C(=O)c1c(OC)cccc1C3=O)C(=O)N[C@@H](CCC(=O)O)C(=O)N[C@@H](Cc1c[nH]cn1)C(=O)N[C@@H](Cc1ccccc1)C(=O)N[C@@H](CCCNC(=N)N)C(=O)N[C@@H](Cc1c[nH]c2ccccc12)C(=O)NCC(=O)N[C@@H](CCCCN)C(=O)N1CCC[C@H]1C(=O)N[C@H](C(N)=O)C(C)C [Conj1, Dau=Aoa-SYSNleEHFRWGKPV-NH2] | 9800 ± 5400 | 0.0041 | 9900 ± 1500 | 0.0050 | 12800 ± 1600 | 0.0093 | 2900 ± 600 | 0.0090 | 12.9 | 2.4 | +12.9% | -2.4% | +9.7% | -23.8% | 9.7 | –
CCCC[C@H](NC(=O)[C@H](CO)NC(=O)[C@H](Cc1ccc(O)cc1)NC(=O)[C@H](CO)NC(=O)CON=C(C)[C@]1(O)Cc2c(O)c3c(c(O)c2[C@@H](O[C@H]2C[C@H](N)[C@H](O)[C@H](C)O2)C1)C(=O)c1c(OC)cccc1C3=O)C(=O)N[C@@H](CCC(=O)O)C(=O)N[C@@H](Cc1c[nH]cn1)C(=O)N[C@@H](Cc1ccccc1)C(=O)N[C@@H](CCCNC(=N)N)C(=O)N[C@@H](Cc1c[nH]c2ccccc12)C(=O)NCC(=O)N[C@@H](CCCCNC(=O)CON=C(C)[C@]1(O)Cc2c(O)c3c(c(O)c2[C@@H](O[C@H]2C[C@H](N)[C@H](O)[C@H](C)O2)C1)C(=O)c1c(OC)cccc1C3=O)C(=O)N1CCC[C@H]1C(=O)N[C@H](C(N)=O)C(C)C [Conj3, Dau=Aoa-SYSNleEHFRWGK(Dau=Aoa)PV-NH2] | 3000 ± 800 | 0.0133 | 3600 ± 200 | 0.0138 | 11000 ± 800 | 0.0108 | 2000 ± 700 | 0.0130 | 18.2 | – | +18.2% | +9.2% | -14.7% | +12.3% | – | Tumor weight increased in comparison to the control ([5]; after termination (day 20), 10 mg Dau content/kg i.p.): 9.2%; Average tumor volume (mm^3) higher compared to the control group ([5]; end of experiment (day 20), 10 mg Dau content/kg i.p.): 12.3%
COc1cccc2c1C(=O)c1c(O)c3c(c(O)c1C2=O)C[C@@](O)(C(C)=O)C[C@@H]3O[C@H]1C[C@H](N)[C@H](O)[C@H](C)O1 [Dau, daunomycin, reference compound] | – | – | – | – | – | – | – | – | 7.6 | 17 | +7.6% | -17.0% | +58.8% | -4.9% | 58.8 | Liver weight compared to the control ([6]; OCM-1-bearing NOD-SCID mice, Conj2 5 mg/kg, Conj4 10 mg/kg, daunomycin 1 mg/kg i.p., no significant toxicity): 89.79%; Normalized liver weight, value line 1 ([6]; Table S2, single animal, line 1): 4.05%; Normalized liver weight, value line 2 ([6]; Table S2, single animal, line 2): 4.31%; Normalized liver weight, value line 4 ([6]; Table S2, single animal, line 4): 4.81%; Normalized liver weight, value line 5 ([6]; Table S2, single animal, line 5): 4.07%; Normalized liver weight, value line 6 ([6]; Table S2, single animal, line 6): 4.07%; Normalized liver weight, value line 7 ([6]; Table S2, single animal, line 7): 5.29%; Normalized liver weight, line printed as "relative to ctr" ([6]; Table S2, value line 9): 5.00%; Toxicity (general condition of mice) [6, 7]: high toxicity; Tumor inhibition compared to the controls [6, 7]: lack of tumor inhibition; IC50 ([1]; Homo sapiens): 40 ± 7 nM; IC50 ([2]; Homo sapiens): 50 ± 23 nM; IC50 ([3]; Homo sapiens): 119 ± 25 nM; IC50 ([4]; Mus musculus): 26 ± 8 nM; Tumor growth inhibition based on tumor volume in mm^3, compared to control ([5]; end of experiment (day 20), conjugates 10 mg Dau content/kg i.p., free Dau 1 mg/kg): 4.9%; Animals died during the experiment ([5]; seven animals per group, B16-bearing C57BL/6 mice): 3 animals; IC50 (WM983A cells): 190 ± 60 nM; IC50 (OCM-3 cells): 560 ± 50 nM; IC50 (WM983B cells): 330 ± 50 nM; IC50 (OCM-1 cells): 730 ± 60 nM
